Columns and labels:
rat skin = settings: 5% concentration (154 mM), topical; cited from earlier work
[1] = Skin viability after topical enhancer application (TTC reduction test); settings: human, freshly excised full thickness human skin, 1% in 60% PG for 24 or 48 h, decrease not significant, read-out: viability of treated skin relative to untreated skin
Method: Freshly excised full thickness human skin was incubated in Dulbecco’s modified Eagle’s medium (DMEM, Lonza, Verviers, Belgium) supplemented with 10% heat-inactivated fetal bovine serum (Merck, Darmstadt, Germany), and 1% penicillin/streptomycin + 1% amphotericin B solution (Lonza, Verviers, Belgium) at 37 °C in a humidified atmosphere of 5% CO2. Skin fragments were treated with 1% enhancer in 60% PG, 20 µl/cm^2, 60% PG alone or left untreated for 24 or 48 h. Then the skin was washed rinsed with distilled water and gently blotted dry. Skin viability was evaluated using the 2,3,5-triphenyltetrazolium chloride (TTC) reduction test[57]. Punch biopsies of 5 mm diameter were incubated in 1 ml of 1.5% TTC and 3% sodium succinate in phosphate buffered saline at pH 7.4 at 37 °C under nitrogen in the dark. After 1 h, the skin samples were dried and the dark red formazan derivative produced by the mitochondrial enzymes was extracted with 1 ml of 2-methoxyethanol for 12 h. Absorbance was measured at 490 nm using Tecan Infinite 200 M plate reader (Tecan, Grödig, Austria) and corrected using skin samples devitalized by boiling as a negative control. The viability of skin exposed to the different preparations was expressed as a percentage of untreated control skin.

| Structure (SMILES) | visible changes in rat skin after topical application (rat skin) | viability at 1 % [1] [%] |
| --- | --- | --- |
| CCCCCCCCCCCCOC(=O)C1CCCN1C(C)=O (stereo not drawn) [Pro2, N-acetyl proline dodecyl ester] | did not cause any visible changes in rat skin | – |
| CCCCCCCCCCCCOC(=O)C1CCCN1C(=O)CC (stereo not drawn) [Pro3] | – | ≥ 92 |
| CCCCCCCCCCCCOC(=O)C1CCCN1C(=O)CCC (stereo not drawn) [Pro4] | – | ≥ 92 |
